The OPERA property sets (Mansouri et al. 2018)
In brackets after ≈: the same amount, converted by molar mass.

Structure (SMILES)	solubility (20 °C)	solubility (25 °C)	further results
O=[N+]([O-])c1ccc(O/N=C/c2cc(Br)c(O)c(Br)c2)c([N+](=O)[O-])c1	0.000217 mM (≈ 0.1 µg/mL)	–	–
O=C[C@@H]1C[C@@H]2[C@@H]3[C@H]1[C@@]1(Cl)C(Cl)(Cl)[C@]3(Cl)[C@@]3(Cl)[C@@H]2[C@]31Cl	–	–	solubility: 6.3e-05 mM (≈ 0.024 µg/mL)
CNC(=O)Oc1ccccc1C1OCCO1	26.9 mM (≈ 6000 µg/mL)	–	–
COP(=S)(OC)Oc1ccc(Sc2ccc(OP(=S)(OC)OC)cc2)cc1	0.000579 mM (≈ 0.27 µg/mL)	–	–
CC(C)OP(=O)(OC(C)C)SCc1ccccc1	1.39 mM (≈ 400 µg/mL)	–	–
CCC(C)N(C(=O)SCc1ccccc1)C(C)CC (centres undefined)	–	–	solubility (30 °C): 0.00895 mM (≈ 2.5 µg/mL)
O=CNC(Nc1ccc(Cl)c(Cl)c1)C(Cl)(Cl)Cl (centres undefined)	0.476 mM (≈ 160 µg/mL)	–	–
C=C1C[C@]23C[C@@]1(O)CC[C@H]2[C@@]12C=C[C@H](O)[C@@](C)(C(=O)O1)[C@H]2[C@@H]3C(=O)O	–	–	solubility: 14.4 mM (≈ 5000 µg/mL)
CN(C(=O)COc1nc2ccccc2s1)c1ccccc1	0.0134 mM (≈ 4 µg/mL)	–	–
CC(O)COCc1c(Cl)ccc(Cl)c1Cl (centres undefined)	–	0.271 mM (≈ 73 µg/mL)	–
C#CC(C)N(C(=O)CCl)c1ccccc1 (centres undefined)	2.26 mM (≈ 500 µg/mL)	–	–
Cc1ccc(NC(=O)N(C)C)cc1Cl	0.329 mM (≈ 70 µg/mL)	–	–
Cc1[nH]c(=O)n(C(C)C)c(=O)c1Br	–	–	solubility: 8.7 mM (≈ 2150 µg/mL)
CN(C)C(O)=Nc1ccc(-n2nc(C(C)(C)C)oc2=O)c(Cl)c1	0.0472 mM (≈ 16 µg/mL)	–	–
CN1C(=O)[C@]23CC4=CC=C[C@H](O)[C@H]4N2C(=O)[C@@]1(CO)SS3	–	–	solubility (30 °C): 0.214 mM (≈ 70 µg/mL)
CNC(=O)Oc1c(C(C)(C)C)cc(C)cc1C(C)(C)C	–	0.0252 mM (≈ 7 µg/mL)	–
Cn1cc(-c2ccccc2)c(=O)c(-c2cccc(C(F)(F)F)c2)c1	–	–	solubility (pH 7.0, 25 °C): 0.0364 mM (≈ 12 µg/mL)
COC(=O)C(C)N(C(=O)c1ccccc1)c1ccc(F)c(Cl)c1 (centres undefined)	–	–	solubility (23 °C): 0.0857 mM (≈ 28.8 µg/mL)
CCOP(=S)(OCC)SCSP(=S)(OCC)OCC	–	0.0052 mM (≈ 2 µg/mL)	–
O=C(O)COc1cc(Cl)cc(Cl)c1	–	4.35 mM (≈ 961 µg/mL)	–

Structure (SMILES)	solubility (20 °C)	solubility (25 °C)	further results
CCSC(=O)N(CC)C1CCCCC1	–	–	solubility (22 °C): 0.395 mM (≈ 85 µg/mL)
COP(=S)(OC)Oc1ccc([N+](=O)[O-])c(C)c1	–	0.137 mM (≈ 38 µg/mL)	–
CCN(CC)c1nc(NC(C)C)nc(OC)n1	–	–	solubility (pH 3.0, 26 °C): 0.0129 mM (≈ 3.09 µg/mL)
CNP(=O)(OC)Oc1ccc(C(C)(C)C)cc1Cl (centres undefined)	–	0.686 mM (≈ 200 µg/mL)	–
CCC1COC(Cn2cncn2)(c2ccc(Cl)cc2Cl)O1 (centres undefined)	0.244 mM (≈ 80 µg/mL)	–	–
CCCCS/C(=N\c1cccnc1)SCc1ccc(C(C)(C)C)cc1	–	0.00268 mM (≈ 1 µg/mL)	–
CCSC(=O)N(CC)CC	–	20.3 mM (≈ 3280 µg/mL)	–
CC(Cl)(Cl)[N+](=O)[O-]	17.4 mM (≈ 2500 µg/mL)	–	–
CCOC(=O)CN(C(=O)CCl)c1c(CC)cccc1CC	–	0.337 mM (≈ 105 µg/mL)	–
O=C1CCc2cccc3c2N1CC3	23.1 mM (≈ 4000 µg/mL)	–	–
CN(C)C(=O)Nc1cc(C(C)(C)C)on1	–	3.74 mM (≈ 790 µg/mL)	–
CNC(=O)N(C)c1nnc(C(F)(F)F)s1	8.74 mM (≈ 2100 µg/mL)	–	–
O=C(O)Cc1c[nH]c2ccccc12	8.56 mM (≈ 1500 µg/mL)	–	–
CCCCc1c(C)nc(NCC)nc1OS(=O)(=O)N(C)C	–	0.0695 mM (≈ 22 µg/mL)	–
COC(=O)C(C)Oc1ccc(Oc2ncc(C(F)(F)F)cc2Cl)cc1 (centres undefined)	–	0.0248 mM (≈ 9.3 µg/mL)	–
N#C/C(=N\OCC1OCCO1)c1ccccc1	0.0861 mM (≈ 20 µg/mL)	–	–
CCNc1nc(OC)nc(N(CC)CC)n1	–	–	solubility (26 °C): 1 mM (≈ 226 µg/mL)
O=C(O)c1cc(Cl)c(Cl)cc1Cl	–	3.59 mM (≈ 810 µg/mL)	–
CC(C)=CCl	–	11 mM (≈ 1000 µg/mL)	–
COC(=O)C1(O)c2ccccc2-c2ccc(Cl)cc21 (centres undefined)	–	0.0655 mM (≈ 18 µg/mL)	–

Structure (SMILES)	solubility (20 °C)	solubility (25 °C)	further results
CNC(=S)[S-].[Na+]	5590 mM	–	–
O=C(O)COc1nc(Cl)c(Cl)cc1Cl	–	1.72 mM (≈ 440 µg/mL)	–
FC(F)(F)c1nc2c(Cl)c(Cl)ccc2[nH]1	–	0.271 mM (≈ 69 µg/mL)	–
Cc1cc(N(C)C)nc(Cl)n1	54.8 mM (≈ 9400 µg/mL)	–	–
Cc1ccc(/N=C/N(C)/C=N/c2ccc(C)cc2C)c(C)c1	–	0.00341 mM (≈ 1 µg/mL)	–
CCSCCSP(=O)(OC)OC	14.3 mM (≈ 3300 µg/mL)	–	–
CN(C)C(=O)SCCCCOc1ccccc1	0.118 mM (≈ 30 µg/mL)	–	–
O=C(OCCOc1ccc(Cl)cc1Cl)c1ccccc1	–	–	solubility: 0.154 mM (≈ 48 µg/mL)
[Br-].[Br-].c1cc[n+]2c(c1)-c1cccc[n+]1CC2	2060 mM	–	–
CCCOC/C(=N\c1ccc(Cl)cc1C(F)(F)F)n1ccnc1	36.1 mM (≈ 12500 µg/mL)	–	–
COP(=S)(OC)SCC(=O)N(c1ccc(Cl)cc1)C(C)C	0.037 mM (≈ 13.6 µg/mL)	–	–
C1CNCCN1.Cl.Cl	2580 mM	–	–
CCN(CC)C(=O)CCl	–	571 mM (≈ 85500 µg/mL)	–
CCOC(=O)NCCOc1ccc(Oc2ccccc2)cc1	0.0199 mM (≈ 6 µg/mL)	–	–
CCOC(=O)Nc1cccc(OC(=O)Nc2ccccc2)c1	0.0233 mM (≈ 7 µg/mL)	–	–
C=C(CC(Cl)(Cl)Cl)c1ccccc1	–	0.0522 mM (≈ 12.3 µg/mL)	–
Cc1nc(C)c(Cl)c(O)c1Cl	–	0.0521 mM (≈ 10 µg/mL)	–
O=S1(=O)OCC2C(CO1)C1(Cl)C(Cl)=C(Cl)C2(Cl)C1(Cl)Cl (centres undefined)	0.00114 mM (≈ 0.48 µg/mL)	–	–
C=CCN(CC=C)C(=O)C(Cl)Cl	24 mM (≈ 5000 µg/mL)	–	–
